# Laboratory results reported in patent US6171786A, “Methods for preventing multidrug resistance in cancer cells” (priority 1996, dated 2001).
# “Also recorded” adds a separate entry of the source.
# Experiments:
# MDR1 expression [1] = experiment: Inhibition of AraC-induced MDR1 expression by phospholipase C inhibitors (RT-PCR); format: cell-based, human; conditions: U73122 1 and 10 μM; H9, 25 μM AraC
# Procedure: The inhibitor was added 45 min. prior to the addition of Ara C. Negative control cultures were incubated as above without the addition of either AraC or U73122.
# The specificity of phospholipase C-targeted inhibition of MDR1 induction by cytotoxic drugs was determined in a comparative experiment using a known inhibitor of […] phospholipase C (PC-PLC).
# MRP expression = experiment: Inhibition of MRP mRNA expression in H-9 cells (cDNA-PCR); format: cell-based, human; design: Inhibition of MRP expression: key to the marks not given beside the values
# Procedure: Cells were plated in 6-well Falcon tissue culture plates at 3,300 cells per well, and incubated in the appropriate concentrations of drugs. Each of the protein kinase inhibitors to be tested were added at their appropriate final concentrations, and the cells then incubated for 10 hours at 37° C. under an atmosphere of 5% CO2.
# PCR was performed using the following primers: […]
# (where β2 M represents β2 microglobulin). PCR was performed for β2 M experiments under a regime consisting of 1 cycle comprising denaturation at 94° C. for 3 minutes, primer annealing at 60° C. for 30 seconds, and primer extension at 72° C. for 1 minute, followed by 19 cycles comprising denaturation at 94° C. for 30 seconds, primer annealing at 60° C. for 30 seconds, and primer extension at 72° C. for 1 minute, followed by a final cycle comprising denaturation at 94° C. for 30 seconds, primer annealing at 60° C. for 30 seconds, and primer extension at 72° C. for 5 minutes.
# H-9 cells were used to analyze the effect of various protein kinase inhibitors on the expression of the multidrug resistance associated protein MRP (Grant et al., ibid.).
# MDR1 expression [2] = experiment: Inhibition of cytotoxic drug-induced MDR1 expression by protein kinase inhibitors (cDNA-PCR)
# Procedure: (§1) Cells were plated in 6-well Falcon tissue culture plates at 3,300 cells per well, and incubated in the appropriate concentrations of drugs. Each of the protein kinase inhibitors to be tested were added at the appropriate final concentration 45 minutes prior to MDR1 induction by the addition of Ara-C or TPA, with the exception of herbimycin A, which was added 12 hours prior to Ara-C or TPA, and tyrphostins A25 and B46, which were each added 16 hours prior to MDR1 induction by the addition of Ara-C or TPA. Cells were incubated overnight (TPA) or for 10 hours (Ara-C) at 37° C./ 5% CO2 after the addition of the MDR1 inducing agents before harvesting for cDNA-PCR analysis.
# In addition, the analysis of certain drugs imposed added requirements. For experiments using calphostin C, cells were incubated under direct white light illumination. For experiments using D,L-threo-sphingosine, the cell culture medium was pre-treated with the appropriate concentration of the drug for one hour at 37° C. with continuous gentle mixing. After this pretreatment, cells were resuspended in media supplemented with drug and incubated for 45 minutes as described above.
# To further evaluate the capacity of protein kinase inhibitors to suppress MDR1 induction by cytotoxic drugs and PKC agonists, H-9 human T-cell leukemia cells were used in cDNA-PCR assays to examine induced MDR1 mRNA expression levels in the presence of protein kinase inhibitors.
# MDR1 expression [3] = experiment: Inhibition of TPA- or DOG-induced MDR1 expression; format: cell-based, human; conditions: H-9 cells; 32 μM erbstatin analog
# Procedure: PBL were treated with 1 ng/mL TPA; H9 and K562 cells with 10 ng/mL TPA; KG1a and KG1 cells with 100 ng/mL TPA and the other cell lines with 10 ng/mL TPA.
# as §1
# [4] = system: MDR1 expression (P-glycoprotein); experiment: Induction of MDR1 expression by cytotoxic drugs (dye efflux, UIC2, cDNA-PCR); format: cell-based, human; conditions: for maintenance of MDR1 expression after removal of drug: K562 subpopulation
# Procedure: (Commercially-available kits (for example, from GIBCO/BRL, Gaithersburg, Md.) can be advantageously modified for making cDNA using random hexamers.) PCR is then performed using the following primers: […]
# (where β2 M represents β2 microglobulin). PCR was performed for β2 M experiments under a regime consisting of 1 cycle comprising denaturation at 94° C. for 3 minutes, primer annealing at 60° C. for 30 seconds, and primer extension at 72° C. for 1 minute, followed by 19 cycles comprising denaturation at 94° C. for 30 seconds, primer annealing at 60° C. for 30 seconds, and primer extension at 72° C. for 1 minute, followed by a final cycle comprising denaturation at 94° C. for 30 seconds, primer annealing at 60° C. for 30 seconds, and primer extension at 72° C. for 5 minutes. MDR1 cDNA sequences were amplified using the identical protocol as for β2 M, but extending the amplification from 19 cycles to 25 cycles. In addition, the cDNA-PCR amplification protocol contained the following modifications: (i) Taq DNA polymerase was added to the PCR mixtures after initial heating of the samples to 94° C. (ii) The yield of the β2 -microglobulin-specific band, obtained after 22-28 cycles of PCR, was used as the primary criterion for equalizing the starting amounts of the cDNA templates in different preparations, in order to account for differential RNA degradation in cells subjected to different types of treatment. ^32 P-labeled PCR products were detected by autoradiography.
# In particular PKC is activated by treatment with Ara-C. Therefore, experiments were performed to test whether Ara-C, which is not transported by P-glycoprotein, would have any effect on P-glycoprotein function in K562 leukemia cells.
# Also assayed was whether drug-induced MDR1 expression was maintained after cytotoxic drug treatment. […] At different times, MDR1 expression in the surviving cells was analyzed by dye efflux and immunofluorescence labeling with UIC2 (FIG. 3C) or by cDNA-PCR (FIG. 4E).
# MDR1 expression [5] = experiment: Inhibition of cytotoxic drug-induced MDR1 expression by inhibitors of NF-κB activation; format: cell-based, human; conditions: H9
# MDR1 expression [6] = experiment: Induction of MDR1 expression by agents that increase intracellular Ca2+; format: cell-based, human; conditions: H9 cells, 10 hrs
# Procedure: H9 cells were seeded into each well of 6-well plates (10^5 cells/well in 3 mL of RPMI-1640 medium/10% fetal bovine serum/2 mM L-glutamine/100 U/mL penicillin and 100 μg/mL streptomycin). Experimental cultures were treated with either the calcium-specific ionophore A23187 or an inhibitor of Ca^2+ -dependent ATPase, thapsigargin. Cells were incubated with 10 μM A23187 or 10 μg/mL thapsigargin for 10 hrs at 37° C., 5% CO2 in a humidified atmosphere. Negative control cultures were incubated as above without the addition of either A23187 or thapsigargin.
# After each incubation was complete, steady-state levels of MDR1- and β2 -microglobulin mRNA (internal standard) were determined by RT-PCR as described above in Example 4. PCR products were then analyzed in 7.5% polyacrylamide gel electrophoresis and autoradiographed. […] The absence of the MDR1-specific band and presence of the β2 -microglobulin specific band was consistent with the results on uninduced H9 cells shown above in Examples 4 and 5 and FIGS. 7A through 7F.
compound,measurement,setting,value
"COc1ccc2c(c1)CC[C@@H]1[C@@H]2CC[C@]2(C)[C@@H](NCCCCCCN3C(=O)C=CC3=O)CC[C@@H]12 [U73122, 1-(6-((1β-3-methoxyestra-1,3,5(10)-trien-17-yl)amino)hexyl)-1-H-pyrrole-2,5-dione]",inhibition of AraC-induced MDR1 mRNA,MDR1 expression [1],inhibited the induction of MDR1 mRNA; also recorded: reduced the steady-state levels of MDR1 mRNA
"COC(=O)C=Cc1cc(O)ccc1O [methyl-2,5-dihydroxycinnamate]",MRP expression,MRP expression; 32 μM,capable of inhibiting MRP expression; also recorded: strongly inhibited
same,inhibition of Ara-C induced MDR1 expression,"MDR1 expression [2]; 32 μM erbstatin analog, H-9 cells",completely inhibit Ara-C induced MDR1 expression
same,inhibition of TPA-induced MDR1 expression,MDR1 expression [3],completely inhibited TPA-induced MDR1 expression; also recorded: inhibit MDR1 expression induced by treatment of sensitive cells with TPA
"Nc1ccn([C@@H]2O[C@H](CO)[C@@H](O)[C@@H]2O)c(=O)n1 [Ara-C, 1-β-D-arabinofuranosylcytosine]",MRP expression,"MRP expression; 25 μM Ara-C, data not shown",slight decrease in MRP expression
same,MDR1 mRNA expression,"[4]; EJ bladder carcinoma, 10 μM Ara-C",activated MDR1 mRNA expression
same,MDR1 mRNA expression,[4]; H9 T-cell leukemia,a clear MDR1-specific band was detected
same,subpopulation of cells that effluxed Rh123,"[4]; K562, Ara-C 12-72 hours",3-17%
same,MDR1 mRNA expression,"[4]; K562, cDNA-PCR",dose-dependent increase in MDR1 mRNA expression
same,maintenance of MDR1 expression after removal of drug,[4]; drug-free medium,up to 11 weeks
same,maintenance of MDR1 expression after removal of drug,[4]; treated 3-5 days then drug-free,maintained for a least several weeks
same,MDR1 mRNA expression,[4]; KB-3-1 epidermoid carcinoma,activated MDR1 mRNA expression
same,P-glycoprotein expression,"[4]; KG1 leukemia cells, 10 μM Ara-C",increased P-glycoprotein expression
same,MDR1 induction,"[4]; human leukemia and solid-tumor derived cell lines, short-term exposure","MDR1 induction, both at the mRNA and at the protein levels, was observed"
Cc1ccc(S(=O)(=O)N[C@@H](Cc2ccccc2)C(=O)CCl)cc1 [N-tosyl-L-phenylalanine chloromethyl ketone],inhibition of MDR1 induction by Adriamycin (2 μM),MDR1 expression [5]; inhibitor 25 μM,completely abrogate induction of MDR1 gene expression
same,inhibition of MDR1 induction by Ara C (25 μM),MDR1 expression [5]; inhibitor 25 μM,completely abrogate induction of MDR1 gene expression; also recorded: complete suppression of AraC-induced MDR1 expression
S=C(S)N1CCCC1 [pyrrolidone dithiocarbamate],inhibition of MDR1 induction by Ara C (25 μM),MDR1 expression [5]; inhibitor 20 μM,complete suppression of AraC-induced MDR1 expression
same,inhibition of MDR1 induction by Adriamycin (2 μM),MDR1 expression [5]; inhibitor 100 μM,completely abrogate induction of MDR1 gene expression
same,inhibition of MDR1 induction by Ara C (25 μM),MDR1 expression [5]; inhibitor 100 μM,completely abrogate induction of MDR1 gene expression
O=C([O-])c1ccccc1O.[Na+] [sodium salicylate],inhibition of MDR1 induction by Adriamycin (2 μM),MDR1 expression [5]; inhibitor 20 mM,completely abrogate induction of MDR1 gene expression
same,inhibition of MDR1 induction by Ara C (25 μM),MDR1 expression [5]; inhibitor 20 mM,completely abrogate induction of MDR1 gene expression; also recorded: complete suppression of AraC-induced MDR1 expression
C/C=C(/C)C(=O)O[C@H]1C(C)=C2[C@H]([C@@H]1OC(=O)CCCCCCC)[C@@](C)(OC(C)=O)C[C@H](OC(=O)CCC)[C@@]1(O)[C@H]2OC(=O)[C@@]1(C)O [thapsigargin],MDR1 expression (RT-PCR),MDR1 expression [6]; 10 μg/mL,capable of inducing MDR1 gene expression; also recorded: a clear MDR1-specific band was detected
COc1ccc2c(c[n+](C)c3c4cc5c(cc4ccc23)OCO5)c1OC [chelerythrine],MRP expression,MRP expression; 1-5 μM,capable of inhibiting MRP expression; also recorded: strongly inhibited
same,inhibition of MDR1 induction by cytotoxic drugs,MDR1 expression [2],capable of inhibiting MDR1 induction by cytotoxic drugs
same,prevention of MDR1 induction by chemotherapeutic drugs,MDR1 expression [2]; 5 μM chelerythrine,prevent MDR1 induction by chemotherapeutic drugs
same,inhibition of Ara-C induced MDR1 expression,"MDR1 expression [2]; chelerythrine 1 μM and 5 μM, H-9",Progressive dose-dependent inhibition
neomycin sulfate,MRP expression,MRP expression; 10 mM,capable of inhibiting MRP expression; also recorded: strongly inhibited
same,Inhibition of MRP expression,"MRP expression; 10 mM, 10 h",++++
same,inhibition of Ara-C induced MDR1 expression,MDR1 expression [2]; 10 mM neomycin sulfate,inhibit Ara-C induced MDR1 expression; also recorded: completely prevent cytotoxic drug and PKC agonist induction of MDR1 expression
CNc1ccc2oc(C[C@H]3O[C@@]4(CC[C@H]3C)O[C@H]([C@H](C)C(=O)c3ccc[nH]3)[C@H](C)C[C@H]4C)nc2c1C(=O)O [A23187],MDR1 expression (RT-PCR),MDR1 expression [6]; 10 μM,capable of inducing MDR1 gene expression; also recorded: a clear MDR1-specific band was detected
